Assay results: PubChem BioAssay AID262 (DTP/NCI, 2004)
Values joined by “and” are separate entries in the source; they are usually repeats but may differ in a detail not shown here. Equal values may be shown once. Starred links: 1 amine or outer side, 2 acyl side, 3 side chain; linkers in the order of their positions; H or OH if unused. Positions of bridges follow the written chain, without caps; N, C: chain ends. Non-standard residues stand in square brackets, D forms with d. Residues, ends and D or L forms follow the SMILES beside them. Chains are numbered I, II in the order given. Actinocin(9to1) = Cc1c2oc3c(C)ccc(C(=O)[*:1])c3nc-2c(C(=O)[*:2])c(N)c1=O; aThr = C[C@H](O)[C@H](N)C(=O)O; NMeV = CN[C@H](C(=O)O)C(C)C; Sar = CNCC(=O)O

System: LX-1 lung xenograft sc, nude mice, tumor weight
Assay: NCI In Vivo Anticancer Drug Screen. Data for tumor model Human Lung LX-1 Xenograft (subcutaneous) in NU/NU Swiss (nude) mice
Details: endpoint: optimum tumor weight change, higher = larger tumour
Protocol: The antitumor activity of compounds was measured in mice bearing transplantable tumors. Survival or tumor size were measured and the results are expressed as the measurement made in the treated group (T) divided by the measurement made in the vehicle treated control group (C). The tumor model used in this assay is Human Lung LX-1 Xenograft (subcutaneous) in NU/NU Swiss (nude) mice

[1] = dose: 100.0 mg/kg/injection, schedule: Q04DX003 (ip), vehicle: suspension in saline
[2] = dose: 12.5 mg/kg/injection, schedule: Q04DX003 (ip), vehicle: saline
[3] = dose: 200.0 mg/kg/injection, schedule: Q04DX003 (ip), vehicle: suspension in saline
[4] = dose: 400.0 mg/kg/injection, schedule: Q04DX003 (ip), vehicle: suspension in saline
[5] = dose: 25.0 mg/kg/injection, schedule: Q04DX003 (ip), vehicle: Klucel (hydroxypropylcellulose) (HPC)
[6] = dose: 50.0 mg/kg/injection, schedule: Q04DX003 (ip), vehicle: Klucel (hydroxypropylcellulose) (HPC)
[7] = dose: 12.5 mg/kg/injection, schedule: Q04DX003 (ip), vehicle: saline with Tween-80

O=C(NC1CCCCC1)OCc1c(COC(=O)NC2CCCCC2)c(-c2ccc(Cl)c(Cl)c2)n2c1CCC2
T/C (dose: 200.0 mg/kg/injection, schedule: Q04DX003 (ip), vehicle: saline with Tween-80): 89 % of control | T/C (dose: 400.0 mg/kg/injection, schedule: Q04DX003 (ip), vehicle: saline with Tween-80): 88 % of control | T/C (dose: 800.0 mg/kg/injection, schedule: Q04DX003 (ip), vehicle: saline with Tween-80): 73 % of control

CC(CN1CC(=O)NC(=O)C1)N1CC(=O)NC(=O)C1 (stereo not given)
T/C (dose: 50.0 mg/kg/injection, schedule: Q04DX003 (ip), vehicle: suspension in saline): 70 % of control | T/C [1]: 53 % of control

CN(C)c1nc(N(C)C)nc(N(C)C)n1
T/C (dose: 60.0 mg/kg/injection, schedule: Q01DX005 (ip), vehicle: Klucel (hydroxypropylcellulose) (HPC)): 71 % of control | T/C (dose: 60.0 mg/kg/injection, schedule: Q07DX005 (ip), vehicle: Klucel (hydroxypropylcellulose) (HPC)): 188 % of control | T/C (dose: 120.0 mg/kg/injection, schedule: Q01DX005 (ip), vehicle: Klucel (hydroxypropylcellulose) (HPC)): 85 % of control | T/C (dose: 120.0 mg/kg/injection, schedule: Q07DX005 (ip), vehicle: Klucel (hydroxypropylcellulose) (HPC)): 78 % of control

COc1cccc2c1C(=O)c1c(O)c3c(c(O)c1C2=O)C[C@@](O)(/C(C)=N\O)C[C@@H]3OC1CC(N)C(O)C(C)O1 (stereo not given in full)
T/C [2]: 55 % of control

CSc1cc(=O)n2c3ccccc3c3ccnc1c32
T/C (dose: 20.0 mg/kg/injection, schedule: Q04DX003 (ip), vehicle: saline with Tween-80): 92 % of control | T/C (dose: 40.0 mg/kg/injection, schedule: Q04DX003 (ip), vehicle: saline with Tween-80): 71 % of control | T/C (dose: 80.0 mg/kg/injection, schedule: Q04DX003 (ip), vehicle: saline with Tween-80): 93 % of control | T/C (dose: 160.0 mg/kg/injection, schedule: Q04DX003 (ip), vehicle: saline with Tween-80): 92 % of control

O=C1c2c(O)ccc(O)c2C(=O)c2c(NCCNCCO)ccc(NCCNCCO)c21
T/C (dose: 0.31 mg/kg/injection, schedule: Q04DX003 (ip), vehicle: water): 52 % of control

Cc1c2oc3c(C)ccc(C(=O)N[C@@H]4C(=O)N[C@H](C(C)C)C(=O)N5CCC[C@H]5C(=O)N(C)CC(=O)N(C)[C@@H](C(C)C)C(=O)O[C@H]4C)c3nc-2c(C(=O)N[C@@H]2C(=O)N[C@H](C(C)C)C(=O)N3CCC[C@H]3C(=O)N(C)CC(=O)N(C)[C@@H](C(C)C)C(=O)O[C@H]2C)c(N)c1=O (I: [aThr][dV]P[Sar][NMeV] / II: [aThr][dV]P[Sar][NMeV]; ester I:1-I:C, II:1-II:C; linker I:N-II:N via Actinocin(9to1))
T/C (dose: 150.0 micrograms/kg/injection, schedule: Q04DX003 (ip), vehicle: saline): 122 % of control | T/C (dose: 300.0 micrograms/kg/injection, schedule: Q04DX003 (ip), vehicle: saline): 106 % of control

N[C@H](C(=O)O)[C@@H]1CC(Cl)=NO1
T/C (dose: 8.0 mg/kg/injection, schedule: Q01DX009 (ip), vehicle: saline): 31 % of control | T/C (dose: 16.0 mg/kg/injection, schedule: Q01DX009 (ip), vehicle: saline): 17 % of control | T/C (dose: 32.0 mg/kg/injection, schedule: Q01DX009 (ip), vehicle: saline): 24 % of control | T/C [1]: 36 % of control | T/C [3]: 27 % of control | T/C (dose: 400.0 mg/kg/injection, schedule: Q04DX003 (ip), vehicle: saline): 6 % of control | T/C [4]: 15 % of control

CCN(C)N=Nc1ccc(C(N)=O)cc1
T/C [5]: 67 % of control | T/C [6]: 9 % of control | T/C (dose: 200.0 mg/kg/injection, schedule: Q04DX003 (ip), vehicle: Klucel (hydroxypropylcellulose) (HPC)): -60 % of control

Oc1cc2c3c(c1)c1cc4c(cc1c[n+]3CC2)OCO4
T/C (dose: 12.5 mg/kg/injection, schedule: Q04DX003 (ip), vehicle: water): 78 % of control | T/C (dose: 25.0 mg/kg/injection, schedule: Q04DX003 (ip), vehicle: water): 63 % of control | T/C (dose: 50.0 mg/kg/injection, schedule: Q04DX003 (ip), vehicle: water): 62 % of control

Oc1ccc(O)cc1
T/C (dose: 50.0 mg/kg/injection, schedule: Q04DX003 (ip), vehicle: saline): 201 % of control

CCOC(=O)C1C2OC(=O)C(C(=O)C2CN(CCCl)CCCl)C1C1CC=C(CC2=CCC(C3C4C(=O)OC(C(CN(CCCl)CCCl)C4=O)C3C(=O)OCC)CC2)CC1 (stereo not given)
T/C [5]: 58 % of control | T/C [6]: 64 % of control | T/C (dose: 100.0 mg/kg/injection, schedule: Q04DX003 (ip), vehicle: Klucel (hydroxypropylcellulose) (HPC)): 55 % of control

O=C/C(Cl)=C(/Cl)C(=O)O
T/C (dose: 3.13 mg/kg/injection, schedule: Q04DX003 (ip), vehicle: saline with Tween-80): 112 % of control | T/C (dose: 6.25 mg/kg/injection, schedule: Q04DX003 (ip), vehicle: saline with Tween-80): 84 % of control | T/C [7]: 71 % of control

COc1cccc2c1C(=O)c1c(O)c3c(c(O)c1C2=O)C[C@@](O)(C(=O)CO)C[C@@H]3OC1CC(N)C(OC)C(C)O1 (stereo not given in full)
T/C (dose: 0.4 mg/kg/injection, schedule: Q04DX003 (ip), vehicle: saline): 84 % of control | T/C (dose: 0.79 mg/kg/injection, schedule: Q04DX003 (ip), vehicle: saline): 106 % of control | T/C (dose: 1.57 mg/kg/injection, schedule: Q04DX003 (ip), vehicle: saline): 40 % of control

CO[C@@]12[C@H](COC(N)=O)C3=C(C(=O)C(C)=C(N)C3=O)N1C[C@@H]1N[C@@H]12
T/C (dose: 1.5 mg/kg/injection, schedule: Q04DX003 (ip), vehicle: saline): 98 % of control | T/C (dose: 3.0 mg/kg/injection, schedule: Q04DX003 (ip), vehicle: saline): 40 % of control

O=C[C@@H](CO)O[C@H](C=O)n1cnc2c(=O)[nH]cnc21
T/C [1]: 92 % of control | T/C [3]: 73 % of control | T/C [4]: 62 % of control

COC1C(C)OC(OC2CC(C)(O)Cc3cc4c(c(O)c32)C(=O)c2c(O)cc3c(c2C4=O)OC2OC3(C)C(O)C(N(C)C)C2O)C(OC)C1(C)OC (stereo not given)
T/C (dose: 2.5 mg/kg/injection, schedule: Q04DX003 (ip), vehicle: Klucel (hydroxypropylcellulose) (HPC)): 69 % of control | T/C (dose: 5.0 mg/kg/injection, schedule: Q04DX003 (ip), vehicle: Klucel (hydroxypropylcellulose) (HPC)): 75 % of control | T/C (dose: 10.0 mg/kg/injection, schedule: Q04DX003 (ip), vehicle: Klucel (hydroxypropylcellulose) (HPC)): 56 % of control | T/C (dose: 20.0 mg/kg/injection, schedule: Q04DX003 (ip), vehicle: Klucel (hydroxypropylcellulose) (HPC)): 38 % of control

O=Cc1ccc(O)c(O)c1
T/C [7]: 91 % of control | T/C (dose: 25.0 mg/kg/injection, schedule: Q04DX003 (ip), vehicle: saline with Tween-80): 107 % of control | T/C (dose: 50.0 mg/kg/injection, schedule: Q04DX003 (ip), vehicle: saline with Tween-80): 114 % of control

COc1cc([C@@H]2c3cc4c(c(O)c3C[C@H]3COC(=O)[C@@H]32)OCO4)cc(OC)c1OC
T/C (dose: 2.5 mg/kg/injection, schedule: Q04DX003 (ip), vehicle: saline): 107 % of control | T/C (dose: 5.0 mg/kg/injection, schedule: Q04DX003 (ip), vehicle: saline): 73 % of control | T/C (dose: 10.0 mg/kg/injection, schedule: Q04DX003 (ip), vehicle: saline): 86 % of control | T/C (dose: 20.0 mg/kg/injection, schedule: Q04DX003 (ip), vehicle: saline): 64 % of control

CC[C@](O)(C(=O)O)c1cc2n(c(=O)c1CO)Cc1cc3ccccc3nc1-2
T/C (dose: 1.0 mg/kg/injection, schedule: Q04DX003 (ip), vehicle: saline): 40 % of control | T/C (dose: 4.0 mg/kg/injection, schedule: Q04DX003 (ip), vehicle: saline): 26 % of control and 40 % of control | T/C (dose: 8.0 mg/kg/injection, schedule: Q04DX003 (ip), vehicle: saline): 32 % of control and 35 % of control | T/C (dose: 16.0 mg/kg/injection, schedule: Q04DX003 (ip), vehicle: saline): 29 % of control

Cc1c(N)nc([C@H](CC(N)=O)NC[C@H](N)C(N)=O)nc1C(=O)N[C@H](C(=O)N[C@H](C)[C@@H](O)CC(=O)N[C@H](C(=O)NC(O[C@@H]1O[C@@H](C)[C@@H](N)[C@@H](O)[C@H]1O)C(O)c1nc(-c2nc(C(=O)NCCCCN)cs2)cs1)[C@@H](C)O)[C@@H](O[C@@H]1O[C@@H](CO)[C@@H](O)[C@H](O)[C@@H]1O[C@H]1O[C@H](CO)[C@@H](O)[C@H](OC(N)=O)[C@@H]1O)c1c[nH]cn1 (stereo not given in full)
T/C (dose: 2.0 mg/kg/injection, schedule: Q04DX003 (ip), vehicle: saline): 77 % of control

O=CC(S)CO (stereo not given)
T/C [3]: 99 % of control

CN1CCN(CCCN2c3ccccc3Sc3ccc(C(F)(F)F)cc32)CC1
T/C (dose: 6.25 mg/kg/injection, schedule: Q04DX003 (ip), vehicle: saline): 63 % of control | T/C [2]: 78 % of control | T/C (dose: 25.0 mg/kg/injection, schedule: Q04DX003 (ip), vehicle: saline): 84 % of control
